Assay results as given in publication PMC8657793, “Synthesis, In Vitro and In Silico Anticancer Activity of New 4-Methylbenzamide Derivatives Containing 2,6-Substituted Purines as Potential Protein Kinases Inhibitors” (International Journal of Molecular Sciences, 2021).

Key:
[1] = system: HL-60 (promyelocytic leukemia); test: MTT anti-proliferative assay, HL-60; assay type: cell-based; conditions: Homo sapiens, 48 h
Description: (§1) For the in vitro assays, a stock solution (1% DMSO in the appropriate buffer with the tested compound diluted under sonication) was prepared from which several dilutions were made with the appropriate buffer.
Human cell lines were obtained from the Institute of Cytology, Russian Academy of Sciences. […] Plates were incubated under standard conditions for 48 h.

EGFR = molecular target: T1, EGFR (Homo sapiens, UniProt P00533); test: Kinase Selectivity Profiling System TK-1 / ADP-Glo, EGFR; assay type: biochemical
T1 construct: purchased Promega
T1 sequence (P00533 25-1210): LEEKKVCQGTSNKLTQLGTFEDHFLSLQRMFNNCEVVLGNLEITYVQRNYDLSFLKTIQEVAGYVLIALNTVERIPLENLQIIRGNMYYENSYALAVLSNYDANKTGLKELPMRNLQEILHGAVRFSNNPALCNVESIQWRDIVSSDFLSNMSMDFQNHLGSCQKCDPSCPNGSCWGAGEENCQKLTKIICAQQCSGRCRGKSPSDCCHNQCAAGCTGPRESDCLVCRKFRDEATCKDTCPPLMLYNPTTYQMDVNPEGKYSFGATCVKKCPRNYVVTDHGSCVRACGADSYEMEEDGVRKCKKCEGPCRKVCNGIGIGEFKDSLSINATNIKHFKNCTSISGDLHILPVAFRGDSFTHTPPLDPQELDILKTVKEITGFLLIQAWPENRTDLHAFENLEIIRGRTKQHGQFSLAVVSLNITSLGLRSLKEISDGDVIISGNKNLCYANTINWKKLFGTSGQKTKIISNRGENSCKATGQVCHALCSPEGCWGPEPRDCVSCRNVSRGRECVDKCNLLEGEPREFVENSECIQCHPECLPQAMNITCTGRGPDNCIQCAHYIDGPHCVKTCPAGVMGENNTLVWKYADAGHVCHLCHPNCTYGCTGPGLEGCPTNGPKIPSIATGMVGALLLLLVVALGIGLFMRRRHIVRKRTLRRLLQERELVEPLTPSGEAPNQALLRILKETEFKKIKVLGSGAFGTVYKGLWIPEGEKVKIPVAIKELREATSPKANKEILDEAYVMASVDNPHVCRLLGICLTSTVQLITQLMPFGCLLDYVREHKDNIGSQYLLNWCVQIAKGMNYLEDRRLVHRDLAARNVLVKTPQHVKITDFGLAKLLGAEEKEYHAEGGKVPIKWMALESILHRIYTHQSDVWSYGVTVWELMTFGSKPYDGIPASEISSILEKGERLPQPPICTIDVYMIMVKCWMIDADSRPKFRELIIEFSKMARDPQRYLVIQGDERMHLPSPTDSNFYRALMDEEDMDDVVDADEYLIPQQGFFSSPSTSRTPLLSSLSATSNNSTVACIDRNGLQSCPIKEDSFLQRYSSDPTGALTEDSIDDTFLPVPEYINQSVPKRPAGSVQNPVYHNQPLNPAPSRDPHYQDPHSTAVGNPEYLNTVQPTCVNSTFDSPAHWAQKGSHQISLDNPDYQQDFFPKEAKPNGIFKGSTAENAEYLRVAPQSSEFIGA
Description: (§2) At the end, 10 μL of kinase detection reagent was added into the well and incubated for 30 min to produce a luminescence signal.

HER4 = molecular target: T2, HER4 (Homo sapiens, UniProt Q15303); test: Kinase Selectivity Profiling System TK-1 / ADP-Glo, HER4; assay type: biochemical
T2 construct: purchased Promega
T2 sequence (Q15303 26-1308): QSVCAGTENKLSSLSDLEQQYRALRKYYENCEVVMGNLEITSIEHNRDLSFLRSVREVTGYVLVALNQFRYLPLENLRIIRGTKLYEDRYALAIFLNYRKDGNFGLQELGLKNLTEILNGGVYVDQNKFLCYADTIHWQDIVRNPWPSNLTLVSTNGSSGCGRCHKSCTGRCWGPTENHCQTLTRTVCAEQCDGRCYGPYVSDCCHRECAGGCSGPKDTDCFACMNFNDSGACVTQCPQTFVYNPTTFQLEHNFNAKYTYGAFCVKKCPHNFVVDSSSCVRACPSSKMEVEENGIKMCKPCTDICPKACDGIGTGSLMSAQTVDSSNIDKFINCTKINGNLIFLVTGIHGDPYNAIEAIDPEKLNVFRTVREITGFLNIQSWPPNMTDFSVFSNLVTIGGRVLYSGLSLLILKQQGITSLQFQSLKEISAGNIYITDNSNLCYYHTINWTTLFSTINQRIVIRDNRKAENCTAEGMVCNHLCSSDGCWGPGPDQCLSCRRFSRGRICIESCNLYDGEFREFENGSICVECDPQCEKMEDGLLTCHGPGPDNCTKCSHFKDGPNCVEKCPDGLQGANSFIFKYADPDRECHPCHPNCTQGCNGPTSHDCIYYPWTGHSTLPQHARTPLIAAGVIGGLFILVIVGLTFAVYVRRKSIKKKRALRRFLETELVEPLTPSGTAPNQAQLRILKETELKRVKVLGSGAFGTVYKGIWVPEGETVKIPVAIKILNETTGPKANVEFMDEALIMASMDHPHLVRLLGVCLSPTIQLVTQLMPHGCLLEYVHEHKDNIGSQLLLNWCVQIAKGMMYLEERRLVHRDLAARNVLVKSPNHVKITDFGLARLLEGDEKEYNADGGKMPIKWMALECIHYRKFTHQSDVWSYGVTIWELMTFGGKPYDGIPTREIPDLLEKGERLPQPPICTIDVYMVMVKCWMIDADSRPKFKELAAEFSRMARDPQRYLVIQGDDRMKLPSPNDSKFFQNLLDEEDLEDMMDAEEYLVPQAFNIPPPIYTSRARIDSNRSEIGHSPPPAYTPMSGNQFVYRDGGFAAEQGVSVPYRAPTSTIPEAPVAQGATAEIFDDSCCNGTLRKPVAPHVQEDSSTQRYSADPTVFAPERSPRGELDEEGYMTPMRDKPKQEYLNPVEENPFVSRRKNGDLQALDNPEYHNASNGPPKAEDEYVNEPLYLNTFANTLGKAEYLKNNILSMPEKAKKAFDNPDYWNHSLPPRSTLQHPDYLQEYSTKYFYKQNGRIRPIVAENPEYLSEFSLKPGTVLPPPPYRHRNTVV
Description: as §2

PDGFRα = molecular target: T3, PDGFRα (Homo sapiens, UniProt P16234); test: Kinase Selectivity Profiling System TK-1 / ADP-Glo, PDGFRα; assay type: biochemical
T3 construct: purchased Promega
T3 sequence (P16234 24-1089): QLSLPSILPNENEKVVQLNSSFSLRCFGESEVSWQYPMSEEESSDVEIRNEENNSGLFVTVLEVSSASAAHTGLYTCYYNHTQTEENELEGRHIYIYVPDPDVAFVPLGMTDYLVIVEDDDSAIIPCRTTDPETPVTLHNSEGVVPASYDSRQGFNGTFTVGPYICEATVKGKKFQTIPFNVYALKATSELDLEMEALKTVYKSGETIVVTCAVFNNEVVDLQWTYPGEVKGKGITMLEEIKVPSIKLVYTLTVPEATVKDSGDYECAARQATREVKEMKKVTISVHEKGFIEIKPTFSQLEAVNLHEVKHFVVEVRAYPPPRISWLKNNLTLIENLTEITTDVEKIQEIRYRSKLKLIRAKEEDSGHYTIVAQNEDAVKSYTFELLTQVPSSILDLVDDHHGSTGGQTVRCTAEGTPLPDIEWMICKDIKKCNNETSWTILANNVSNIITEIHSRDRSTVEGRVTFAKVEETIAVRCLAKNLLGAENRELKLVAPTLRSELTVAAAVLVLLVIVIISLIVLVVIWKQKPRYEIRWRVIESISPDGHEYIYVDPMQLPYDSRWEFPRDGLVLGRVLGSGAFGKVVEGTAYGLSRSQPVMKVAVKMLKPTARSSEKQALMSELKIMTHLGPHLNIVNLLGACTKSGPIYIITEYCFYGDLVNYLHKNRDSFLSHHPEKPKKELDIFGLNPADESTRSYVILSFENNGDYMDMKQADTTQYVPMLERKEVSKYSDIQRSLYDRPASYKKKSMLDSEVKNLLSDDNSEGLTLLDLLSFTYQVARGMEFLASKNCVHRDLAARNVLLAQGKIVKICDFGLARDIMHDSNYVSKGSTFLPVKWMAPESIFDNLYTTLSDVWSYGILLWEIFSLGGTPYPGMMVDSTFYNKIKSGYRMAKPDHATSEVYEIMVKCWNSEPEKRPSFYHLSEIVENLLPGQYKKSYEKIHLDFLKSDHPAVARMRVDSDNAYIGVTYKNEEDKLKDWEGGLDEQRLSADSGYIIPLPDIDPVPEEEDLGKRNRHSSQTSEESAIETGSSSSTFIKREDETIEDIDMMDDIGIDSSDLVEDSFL
Text: Considering the presence of a purine ring in the compounds under study, type 1 binding to protein kinases could be expected. We investigated the kinase selectivity of targeted compounds 7–16 against eight receptor tyrosine kinases including EGFR, HER2 and HER4 (epidermal growth factor receptors), IGF1R (insulin-like growth factor 1 receptor), InsR (insulin receptor), KDR (vascular endothelial growth factor receptor 2—VEGFR-2), and PDGFRα and PDGFRβ (platelet-derived growth factor receptors). The assay was performed using the Kinase Selectivity Profiling System TK-1 (Promega, Madison, WI, USA) and ADP-Glo™ Kinase assay kit (Promega, Madison, WI, USA). Kinase activity was measured by quantifying the […] following a kinase reaction. Enzymatic activity inhibition percentage caused by studied compounds was evaluated at the single concentration of 1 μM.
The Abl1 inhibitory activity assay was performed using Abl1 Kinase Enzyme System (Promega, Madison, WI, USA) and ADP-Glo™ Kinase assay kit (Promega, Madison, WI, USA) according to the Technical Manual. The general procedure was as follows: kinase (2.5 ng/reaction) was incubated with substrate (1 μg), compound (0.5 and 10µM) and ATP (50 μM) in a commercial buffer solution with a reaction volume of 5 μL. In every experiment, no-enzyme and no-compound control reactions were included to represent background luminescence (0% activity) and uninhibited kinase activity (100% activity), respectively. The assay 384-well plate was incubated at room temperature for 1 h. Afterwards, 5μL of ADP-Glo reagent was added into each well to stop the reaction and consume the […] within 40 min. At the end, 10 μL of kinase detection reagent was added into the well and incubated for 30 min to produce a luminescence signal. Kinase activity assays were performed in triplicate at each inhibitor concentration. The luminescence was measured with the help of a Tecan Infinite M200 Plate Reader. The luminescence data were analyzed using the computer software, Magellan™. Percent kinase activity (KA) was calculated by subtracting the average no-enzyme control luminescence values from all kinase-containing reactions with or without compound, then converting these net luminescence values to percent activity based on the no-compound control reactions representing 100% kinase activity. Inhibition (I, %) was calculated as 100%-KA.
The single-dose screening of kinase selectivity was performed using Kinase Selectivity Profiling System TK-1 (Promega, Madison, WI, USA) and ADP-Glo™ Kinase assay kit (Promega, Madison, WI, USA) according to Technical Manual. Kinase Selectivity Profiling System TK-1 includes a set of kinases from the tyrosine kinase family (EGFR, HER2, HER4, IGF1R, InsR, KDR, PDGFα, PDGFβ) in 8-tube strip format. The general procedure was as follow: kinase working stock (2 µL/reaction) was incubated with ATP/substrate working stock (1 µL) and compound (1 µM) in a commercial buffer solution with a reaction volume of 5 μL. The reaction conditions and inhibition (%) calculation were the same as in Section 3.3.1. Kinase activity assays were performed in duplicate at each inhibitor.

HeLa (cervix carcinoma) = test: MTT anti-proliferative assay, HeLa; assay type: cell-based; conditions: Homo sapiens, 48 h
Description: To determine the selectivity of the synthesized compounds 7–16 toward various cancer cells and normal human cells, the anti-proliferative activity against K562 (chronic myelogenous leukemia), HL-60 (promyelocytic leukemia), MCF-7 (breast adenocarcinoma), HeLa (cervix carcinoma), HepG2 (human liver cancer), A549 (lung carcinoma), OKP-GS (renal cell carcinoma), and normal cells RPMI 1788 (B lymphocyte, the human cell line) was investigated.
as §1, with “Each in vitro experiment was performed at least in triplicate and the standard deviation of absorbance was less than 10% of the mean. For” for “For”
Human cell lines were obtained from the Institute of Cytology, Russian Academy of Sciences. The cell lines studied were maintained in RPMI 1640 medium (AppliChem, Darmstadt, Germany) supplemented with 20% (HL-60, RPMI 1788) fetal calf serum (HyClone, Cramlington, UK), in DMEM (A 549) and Eagle’s MEM (AppliChem) (MCF7, HeLa) with 10% fetal calf serum (HyClone). Cells were cultivated at 37 °C in a humidified atmosphere of 5% CO2. Cellular sensitivities to synthesized compounds and standards were measured with the MTT assay. Cells were plated in triplicate in 96-well plates (10^5 cells/well for suspended cell cultures and 5 × 10^3 cells/well for monolayer cultures); on the same day (suspended cell cultures) or on the following day (monolayer cultures), compounds were added at the appropriate dilutions. Anti-proliferative activity was studied at concentrations 0.1–50.0 µM. The reference drugs were imatinib, sorafenib and nilotinib. Plates were incubated under standard conditions for 48 h. Thereafter, 10 μL MTT (Sigma) in phosphate-buffered saline (5 mg/mL) was added. The plates were incubated for an additional 4 h and 150 μL dimethylsulphoxide (DMSO) was added to dissolve the formazan crystals. The optical density was read on a HALO MPR-95 Microplate Reader (Dynamica Scientific Ltd., Melbourne, Victoria, Australia) at 570 nm. The antiproliferative effects were taken as degrees of inhibition of tumor cells (%). The average of three parallel measurements was calculated for each concentration of test compound. The degree of cell growth suppression was plotted as a function of the logarithm of the concentration. The half maximal inhibitory concentration (IC50) was determined graphically for active compounds.

Work on `Nc1nc(Cl)nc2c1ncn2Cc1ccc(C(=O)Nc2cccc(C(F)(F)F)c2)cc1` [Compound 15, 4-((6-Amino-2-chloro-9H-purin-9-yl)methyl)-N-(3-(trifluoromethyl)phenyl)benzamide] yielded an IC50 [1] of 7.18 µM, an inhibition at 1 µM (EGFR) of 0% and an inhibition at 1 µM (HER4) of 0%. It also gave an inhibition at 1 µM (PDGFRα) of 16%.

In the case of `Cc1cn(-c2cc(NC(=O)c3ccc(Cn4cnc5c(Cl)nc(Cl)nc54)cc3)cc(C(F)(F)F)c2)cn1` [Compound 10, 4-((2,6-Dichloro-9H-purin-9-yl)methyl)-N-(3-(4-methyl-1H-imidazol-1-yl)-5-(trifluoromethyl)-phenyl)benzamide], the IC50 [1] is reported as 1.52 ± 0.66 µM, the IC50 (HeLa (cervix carcinoma)) is reported as 6.05 ± 1.03 µM and the inhibition at 1 µM (EGFR) is reported as 9%. The inhibition at 1 µM (HER4) was 0% and the inhibition at 1 µM (PDGFRα) was 37%.

`COc1nc(Cl)nc2c1ncn2Cc1ccc(C(=O)Nc2cccc(C(F)(F)F)c2)cc1` [Compound 13, 4-((2-Chloro-6-methoxy-9H-purin-9-yl)methyl)-N-(3-(trifluoromethyl)phenyl)benzamide] showed an IC50 [1] of 26.1 ± 1.23 µM, an IC50 (HeLa (cervix carcinoma)) of 15.4 ± 1.92 µM and an inhibition at 1 µM (EGFR) of 29%. The inhibition at 1 µM (HER4) was 0% and the inhibition at 1 µM (PDGFRα) was 10%.

In the case of `COc1nc(Cl)nc2c1ncn2Cc1ccc(C(=O)Nc2cc(-n3cnc(C)c3)cc(C(F)(F)F)c2)cc1` [Compound 14, 4-((2-Chloro-6-methoxy-9H-purin-9-yl)methyl)-N-(3-(4-methyl-1H-imidazol-1-yl)-5-(trifluoromethyl)phenyl)benzamide], the IC50 [1] is reported as 48.6 ± 3.02 µM, the IC50 (HeLa (cervix carcinoma)) is reported as 33.7 ± 7.49 µM and the inhibition at 1 µM (EGFR) is reported as 9%. The inhibition at 1 µM (HER4) was 0% and the inhibition at 1 µM (PDGFRα) was 16%.

For `CNC(=O)c1cc(Oc2ccc(NC(=O)Nc3ccc(Cl)c(C(F)(F)F)c3)cc2)ccn1` [Sorafenib, sorafenib, reference compound], the IC50 (HeLa (cervix carcinoma)) was 6.82 ± 2.64 µM and the inhibition at 1 µM (PDGFRα) was 98%.

With `O=C(Nc1cccc(C(F)(F)F)c1)c1ccc(Cn2cnc3c(Cl)nc(Cl)nc32)cc1` [Compound 7, 4-((2,6-Dichloro-9H-purin-9-yl)methyl)-N-(3-(trifluoromethyl)phenyl)benzamide] the IC50 [1] was 1.42 ± 0.54 µM, the IC50 (HeLa (cervix carcinoma)) was 6.93 ± 1.18 µM and the inhibition at 1 µM (EGFR) was 6%. For the same molecule, the inhibition at 1 µM (HER4) was 0% and the inhibition at 1 µM (PDGFRα) was 40%.
